Experimental data reported in PMC11082943, “Rpt5-Derived Analogs Stimulate Human Proteasome Activity in Cells and Degrade Proteins Forming Toxic Aggregates in Age-Related Diseases” (International Journal of Molecular Sciences, 2024).
No end group written: not given here.

Experiments:
[1] = test system: T1, proteasome in HEK293T cells; experiment: 20S activity in cellulo (TAS3 assay); type: cell-based, human; conditions: 10 µM TAS3 in KRBH buffer, 30 min preincubation with compound, 37 °C, linear regression of last 60 min, triplicate, Btz 10 µM
T1 construct: HEK293T cells were seeded in black 96-well plates; endogenous in cells; host or cells: HEK293T
Method: HEK293T cells were seeded in black 96-well plates at 7 × 10^3 cells/well and incubated in DMEM supplemented with 10% FBS and penicillin/streptomycin (100 units/mL/100 µg/mL) at 37 °C with 5% CO2. […] After this time, the cells were treated with the tested peptides/peptidomimetics (1–50 µM in medium). Each sample was prepared in triplicate. The plates were incubated for an additional 30 min. Subsequently, the medium was removed, and 100 µL of 10 µM TAS3 in Krebs-Ringer Bicarbonate (KRBH) buffer, containing the tested modulator, was added to the wells. The fluorescence intensity was monitored every 2 min over a 90 min period at 37 °C using a Tecan Infinite M200 Pro plate reader (Tecan Trading AG, Männedorf, Switzerland) with the excitation and emission wavelengths set at 485 nm and 535 nm, respectively. A linear regression analysis was performed for the last 60 min of the measurement. Any increase or decrease in activity of the 20S was compared to that of the control (cells incubated with TAS3 probe in KRBH buffer) and calculated based on the change in fluorescence units per time [40]. To determine statistical significance, ordinary one-way ANOVA was used.

[2] = test system: HEK293T cells; type: in vitro ADME, human
From the text: One of the obstacles in the development of peptide drugs is their low cell permeability. To evaluate if the peptide-based proteasome activators can cross the cell membrane, we synthesized an analog of peptide 7; labeled the ε-amine group of the N-terminal lysine residue with a fluorescent dye, 5/6-carboxytetramethylrhodamine (TAMRA); and used confocal microscopy to detect its entry into cells. […] Therefore, 7 was combined with the HIV-1 TAT protein-derived, membrane-penetrating peptide sequence GRKKRRQRRR (TAT 48–57), separated by the 20S proteasome recognition sequence, LLVY.
TAMRA fluorescent tags were attached to the N-terminal […] group of the lysine residue of compound 7 and the ε-amino group of the corresponding lysine residue in compound TAT-7 before the final deprotection and cleavage of the compounds from the solid support. To achieve the selective attachment of the label to the proper ε-amino group, the Fmoc-Lys(Mtt)-OH was used in this position during peptide elongation. […]
Human embryonic kidney cells (HEK293T, a generous gift of Prof. Grzegorz Węgrzyn, Faculty of Biology, University of Gdańsk, Gdańsk, Poland) were maintained in Dulbecco’s Modified Eagle Medium (DMEM) supplemented with 10% Fetal Bovine Serum (FBS) and penicillin/streptomycin (100 units/mL/100 µg/mL), at 37 °C with 5% CO2. […] The images were merged, and the colocalization of the dye emission was analyzed.

Row | ΔRFU/min (change in fluorescence units per minute, TAS3 probe) [1] [RFU/min] | cell permeability / cellular internalization (result in words) [2] | Compound
1 | 3.7 |  | CC(C)C[C@H](NC(=O)[C@H](Cc1ccccc1)NC(=O)c1cnccn1)B(O)O [Btz, bortezomib]
2 |  | only slightly cell permeable | KKKANLQYYA [compound 7]
